Measured values reported in ChEMBL document CHEMBL1201862, “PubChem BioAssay data set” (2004).
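Results reflect a 48-hour exposure of cells in 96-well plates to compound at five concentrations. The concentration for 50% growth inhibition is given as GI50.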 Activity calls are given as the source filed them. Cut-off read from the data, not from the text of the source: active = GI50 up to about 1.1 µM and inactive = higher.

Experiments:
Test in all cases: NCI anticancer screen, dose series, 48 h
[1] = tested on: SN12C
[2] = tested on: SNB-19
[3] = tested on: ACHN
[4] = tested on: SK-MEL-28
[5] = tested on: EKVX
[6] = tested on: SF-539
[7] = tested on: OVCAR-4
[8] = tested on: SF-268
[9] = tested on: U-251
[10] = tested on: LXFL 529
[11] = tested on: IGROV-1
[12] = tested on: HT-29
[13] = tested on: CCRF-CEM
[14] = tested on: TK-10
[15] = tested on: M14
[16] = tested on: KM12
[17] = tested on: HCC 2998
[18] = tested on: HOP-62
[19] = tested on: SW-620
[20] = tested on: MDA-MB-231

Structure (SMILES) | GI50 [1] | GI50 [2] | GI50 [3] | GI50 [4] | GI50 [5] | GI50 [6] | GI50 [7] | GI50 [8] | GI50 [9] | GI50 [10] | GI50 [11] | GI50 [12] | GI50 [13] | GI50 [14] | GI50 [15] | GI50 [16] | GI50 [17] | GI50 [18] | GI50 [19] | GI50 [20]
CC(Oc1ccc2c(-c3ccc(Cl)cc3)cc(=O)oc2c1)C(=O)O (centres undefined) | > 100 µM (inactive) | > 100 µM (inactive) | > 100 µM (inactive) | > 100 µM (inactive) | > 100 µM (inactive) | > 100 µM (inactive) | > 100 µM (inactive) | > 100 µM (inactive) | > 100 µM (inactive) | > 100 µM (inactive) | > 100 µM (inactive) | > 100 µM (inactive) | > 100 µM (inactive) | > 100 µM (inactive) | > 100 µM (inactive) | > 100 µM (inactive) | > 100 µM (inactive) | > 100 µM (inactive) | > 100 µM (inactive) | 
C/C=C(\N=C=S)C(=O)OC1C(COC(C)=O)OC([C@]2(O)CC(=O)C(N)=C(C(=O)O)C2=O)C(O)C1OC1CC(OC)C(O)([C@@H](C)OC(=O)[C@@H](C)CC)C(C)O1 (some centres undefined) | 15 µM (inactive) | 11.9 µM (inactive) | 18.3 µM (inactive) | 7.66 µM (inactive) | 12.6 µM (inactive) | 7.53 µM (inactive) | 4.26 µM (inactive) | 9.57 µM (inactive) | 9.27 µM (inactive) | 2.06 µM (inactive) | 17.7 µM (inactive) | 8.49 µM (inactive) | 2.4 µM (inactive) | 16.7 µM (inactive) | 16 µM (inactive) | 7.94 µM (inactive) | 18.9 µM (inactive) | 22.1 µM (inactive) | 3.01 µM (inactive) | 19.6 µM (inactive)
O=C(O)COc1ccc(C(=O)/C(SS/C(C(=O)c2ccc(OCC(=O)O)c(Cl)c2Cl)=C2\C=C(c3ccc(F)cc3)SS2)=C2/C=C(c3ccc(F)cc3)SS2)c(Cl)c1Cl | 14.7 µM (inactive) | 15 µM (inactive) | 18.6 µM (inactive) | 19.2 µM (inactive) | 38.6 µM (inactive) | 9.02 µM (inactive) | 13.4 µM (inactive) | 6.9 µM (inactive) | 5.75 µM (inactive) | 3.29 µM (inactive) | 10.8 µM (inactive) | 26.9 µM (inactive) | 4.95 µM (inactive) | 37.8 µM (inactive) | 23.6 µM (inactive) | 15.1 µM (inactive) | 25.6 µM (inactive) | 33.9 µM (inactive) | 15.6 µM (inactive) | 
[O-][n+]1c(-c2ccccc2)oc2ccccc21 | 14.4 µM (inactive) | 24.7 µM (inactive) | 15 µM (inactive) | 18.1 µM (inactive) | 26.7 µM (inactive) | 16.3 µM (inactive) | 24.5 µM (inactive) | 26.9 µM (inactive) | 18.9 µM (inactive) | 9.04 µM (inactive) | 34.1 µM (inactive) | 21.4 µM (inactive) | > 62.1 µM (inactive) | 26.6 µM (inactive) | 11 µM (inactive) | 17.3 µM (inactive) | 19.1 µM (inactive) | 20.4 µM (inactive) | 16.6 µM (inactive) | 
CCN(CC)CCNc1ccc2ncn3c4cc(O)ccc4c(=O)c1c23 | 3.11 µM (inactive) | 3.9 µM (inactive) | 1.61 µM (inactive) | 4.73 µM (inactive) | 8.77 µM (inactive) | 3.25 µM (inactive) | 2.45 µM (inactive) | 2.09 µM (inactive) | 1.53 µM (inactive) | 2.56 µM (inactive) | 4.25 µM (inactive) | 1.95 µM (inactive) | 1.32 µM (inactive) | 6.65 µM (inactive) | 4.5 µM (inactive) | 4.61 µM (inactive) | 3.84 µM (inactive) | 4.85 µM (inactive) | 1.88 µM (inactive) | 
COC1/C=C\C=C(/C)C(=O)Nc2cc3nc4ccc(Br)cc4oc-3c(c2=O)CC(C)CC(OC)C(O)C(C)/C=C(\C)C1OC(N)=O (centres undefined) | 0.0481 µM (active) | 13 µM (inactive) | 0.21 µM (active) | 0.0137 µM (active) | 3.17 µM (inactive) | 0.44 µM (active) | 0.469 µM (active) | 0.499 µM (active) | 4.46 µM (inactive) | < 0.0147 µM (active) | 0.436 µM (active) | < 0.0396 µM (active) |  | 0.0424 µM (active) | 0.0453 µM (active) | 2.26 µM (inactive) | 0.126 µM (active) | 4.1 µM (inactive) | 0.01 µM (active) | 0.00849 µM (active)
N#Cc1cccc(N2C(=O)C3C4C=CC(C3C2=O)C2C(=O)N(c3cccc(C#N)c3)C(=O)C42)c1 (centres undefined) | > 39.8 µM (inactive) | 31.2 µM (inactive) | 40.7 µM (inactive) | > 63.1 µM (inactive) | > 100 µM (inactive) | 29.3 µM (inactive) | > 63.1 µM (inactive) | 19.8 µM (inactive) | 10.1 µM (inactive) | > 46.5 µM (inactive) | 29.7 µM (inactive) | > 63.1 µM (inactive) | 44.8 µM (inactive) | 26.5 µM (inactive) | 59 µM (inactive) | > 56.2 µM (inactive) | > 56.2 µM (inactive) | 18.3 µM (inactive) | > 100 µM (inactive) | > 51.5 µM (inactive)
Fc1ccc2c(c1)cc1ccc3cccc4ccc2c1c34 | > 100 µM (inactive) | > 100 µM (inactive) | > 100 µM (inactive) | > 100 µM (inactive) | 5.02 µM (inactive) | > 100 µM (inactive) | > 100 µM (inactive) | > 100 µM (inactive) | > 100 µM (inactive) | > 100 µM (inactive) | > 100 µM (inactive) | > 100 µM (inactive) | > 100 µM (inactive) | > 100 µM (inactive) | > 100 µM (inactive) | > 100 µM (inactive) | > 100 µM (inactive) | > 100 µM (inactive) | > 100 µM (inactive) | 
CCOC(=O)C(=O)Nc1ccc(Cl)cc1C | > 100 µM (inactive) | > 100 µM (inactive) | > 100 µM (inactive) | > 100 µM (inactive) | > 100 µM (inactive) | > 100 µM (inactive) | > 100 µM (inactive) | > 100 µM (inactive) | > 100 µM (inactive) | > 100 µM (inactive) | > 100 µM (inactive) | > 100 µM (inactive) | > 100 µM (inactive) | > 100 µM (inactive) | > 100 µM (inactive) | > 100 µM (inactive) | > 100 µM (inactive) | > 100 µM (inactive) | > 100 µM (inactive) | 
CN1C(=O)CC2(C)c3cc(O)cc(Br)c3N(C)C12 (centres undefined) | > 100 µM (inactive) | > 100 µM (inactive) | > 100 µM (inactive) | > 100 µM (inactive) | > 100 µM (inactive) | > 100 µM (inactive) | > 10 µM (inactive) | > 100 µM (inactive) | > 100 µM (inactive) | > 100 µM (inactive) | > 100 µM (inactive) | > 100 µM (inactive) | > 100 µM (inactive) | > 100 µM (inactive) | > 100 µM (inactive) | > 100 µM (inactive) | > 100 µM (inactive) | > 100 µM (inactive) | > 100 µM (inactive) | 
CC(=O)Nc1ccccc1S(=O)(=O)c1ccccc1 | > 100 µM (inactive) | > 100 µM (inactive) | > 100 µM (inactive) | > 100 µM (inactive) | > 100 µM (inactive) | > 100 µM (inactive) | > 100 µM (inactive) | > 100 µM (inactive) | > 100 µM (inactive) | > 100 µM (inactive) | > 100 µM (inactive) | > 100 µM (inactive) | > 100 µM (inactive) | > 100 µM (inactive) | > 100 µM (inactive) | > 100 µM (inactive) | > 100 µM (inactive) | > 100 µM (inactive) | > 100 µM (inactive) | 
CCCCCCCCCCCCC(Br)C(=O)SCCNC(=O)CCNC(=O)[C@@H](O)C(C)(C)COP(=O)(O)OP(=O)(O)OCC1OC(n2cnc3c(N)ncnc32)C(O)C1OP(=O)(O)O (some centres undefined) | > 56.5 µM (inactive) | > 56.5 µM (inactive) | > 56.5 µM (inactive) | > 56.5 µM (inactive) | > 56.5 µM (inactive) | > 56.5 µM (inactive) | > 56.5 µM (inactive) | > 56.5 µM (inactive) | 33.7 µM (inactive) | > 56.5 µM (inactive) | > 56.5 µM (inactive) | > 56.5 µM (inactive) | 35.4 µM (inactive) | > 56.5 µM (inactive) | > 56.5 µM (inactive) | > 56.5 µM (inactive) | > 56.5 µM (inactive) | > 56.5 µM (inactive) | > 56.5 µM (inactive) | 
COC(=O)[C@@]12OC[C@]34[C@H]([C@@H](O)[C@@H]1O)[C@@]1(C)CC(=O)C(O)=C(C)[C@@H]1C[C@H]3OC(=O)[C@H](OC(=O)/C=C(\C)C(C)C)[C@@H]24 [BRUCEANTIN] | 0.0222 µM (active) | 0.02 µM (active) | 0.0026 µM (active) | 0.02 µM (active) | 0.0223 µM (active) | 0.02 µM (active) | 0.0211 µM (active) | 0.0205 µM (active) | 0.0242 µM (active) | 3.5e-05 µM (active) | 0.02 µM (active) | 0.02 µM (active) | 0.02 µM (active) | 0.021 µM (active) | 0.00346 µM (active) | 0.02 µM (active) |  | 0.02 µM (active) | 0.02 µM (active) | 0.0384 µM (active)
